The values below come from BindingDB's records for doi:10.1021/bi9005896 (Albert Einstein College of Medicine, 2009).

The target in this test is T1, Purine nucleoside phosphorylase (Homo sapiens, UniProt P00491).
T1 sequence (P00491 whole entry): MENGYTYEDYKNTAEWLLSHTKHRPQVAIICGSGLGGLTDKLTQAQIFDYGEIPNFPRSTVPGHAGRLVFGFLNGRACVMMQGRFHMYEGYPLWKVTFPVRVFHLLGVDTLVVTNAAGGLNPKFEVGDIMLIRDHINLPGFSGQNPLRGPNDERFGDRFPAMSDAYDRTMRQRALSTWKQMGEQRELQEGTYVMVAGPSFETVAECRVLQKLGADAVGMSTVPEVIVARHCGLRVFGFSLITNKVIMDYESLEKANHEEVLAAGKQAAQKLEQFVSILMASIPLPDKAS
The test can be described thus: Inhibtion Assay. An excerpt:
Inhibition assay using human PNP.

As a reminder, the Kd is the equilibrium constant for the complex coming apart. Lower therefore signals a tighter complex.

`O=c1[nH]cnc2c(CN3CCC(O)C3)c[nH]c12` (stereo unspecified) [Immucillins, 11]: the Kd worked out at 0.383 nM.
